Source: patent US20240158348A1, “HERBICIDAL CYCLIC AMIDES N-SUBSTITUTED WITH A HALOALKYLSULFONYLANILIDE GROUP” (FMC Corporation, priority 2021, published 2024)

Columns and labels:
[1] = tested on: kochia (Bassia scoparia); assay: Test A postemergence, kochia; format: in vivo; conditions: post-emergence, 240 h, 0 to 100 scale, 10 days, read-out: Plant response rating, Kochia; for pest or weed control at 31 g/ha: 31 g ai/ha; for pest or weed control at 125 g/ha: 125 g ai/ha
Description: (§1) Seeds of plant species selected from barnyardgrass (Echinochloa crus-galli), blackgrass (Alopecurus myosuroides), corn (Zea mays), foxtail, giant (giant foxtail, Setaria faberi), goosegrass (Eleusine indica), kochia (Bassia scoparia), oat, wild (wild oat, Avena fatua), pigweed, palmer (palmer amaranth, Amaranthus palmeri), pigweed, redroot (redroot pigweed, Amaranthus retroflexus), ragweed (common ragweed, Ambrosia artemisiifolia), ryegrass, Italian (Italian ryegrass, Lolium multiflorum), soybean (Glycine max), and wheat (Triticum aestivum) were planted into a blend of loam soil and sand and treated preemergence with a directed soil spray using test chemicals formulated in a non-phytotoxic solvent mixture which included a surfactant.
(§2) At the same time, plants selected from these crop and weed species and also galium (catchweed bedstraw, Galium aparine) and horseweed (Erigeron canadensis) were planted in pots containing the same blend of loam soil and sand and treated with postemergence applications of test chemicals formulated in the same manner. Plants ranged in height from 2 to 10 cm and were in the one- to two-leaf stage for the postemergence treatment. Treated plants and untreated controls were maintained in a greenhouse for 10 days, after which time all treated plants were compared to untreated controls and visually evaluated for injury. Plant response ratings, summarized in Table A, are based on a 0 to 100 scale where 0 is no effect and 100 is complete control. A dash (-) response means no test result.

[2] = tested on: kochia (Bassia scoparia); assay: Test A preemergence, kochia; format: in vivo; conditions: pre-emergence, 240 h, 0 to 100 scale, 10 days, read-out: Plant response rating, Kochia; for pest or weed control at 31 g/ha: 31 g ai/ha; for pest or weed control at 125 g/ha: 125 g ai/ha
Description: as §1, §2

[3] = tested on: ragweed (common ragweed, Ambrosia artemisiifolia); assay: Test A postemergence, ragweed; format: in vivo; conditions: post-emergence, 240 h, 0 to 100 scale, 10 days, read-out: Plant response rating, Ragweed; for pest or weed control at 31 g/ha: 31 g ai/ha; for pest or weed control at 125 g/ha: 125 g ai/ha
Description: as §1, §2

[4] = tested on: ragweed (common ragweed, Ambrosia artemisiifolia); assay: Test A preemergence, ragweed; format: in vivo; conditions: pre-emergence, 240 h, 0 to 100 scale, 10 days, read-out: Plant response rating, Ragweed; for pest or weed control at 31 g/ha: 31 g ai/ha; for pest or weed control at 125 g/ha: 125 g ai/ha
Description: as §1, §2

[5] = tested on: barnyardgrass (Echinochloa crusgalli); assay: Test B flooded paddy test, barnyardgrass; format: in vivo; conditions: Echinochloa crus-galli; 250 g ai/ha, Flood; scale of 0 to 100 where 0 is no effect and 100 is complete control; visually evaluated after 10 to 14 days; read-out: Plant response rating, Barnyardgrass
Description: Plant species in the flooded paddy test selected from barnyardgrass (Echinochloa crusgalli), ducksalad (Heteranthera limosa), rice (Oryza sativa), and sedge, umbrella (small-flower umbrella sedge, Cyperus difformis) were grown to the 2-leaf stage for testing. At time of treatment, test pots were flooded to 3 cm above the soil surface, treated by application of test compounds directly to the paddy water, and then maintained at that water depth for the duration of the test. Treated plants and controls were maintained in a greenhouse for 10 to 14 days, after which time all species were compared to controls and visually evaluated. Plant response ratings, summarized in Table B, are based on a scale of 0 to 100 where 0 is no effect and 100 is complete control. A dash (-) response means no test result.

[6] = tested on: pigweed, palmer (palmer amaranth, Amaranthus palmeri); assay: Test A preemergence, palmer amaranth; format: in vivo; conditions: 0 to 100 scale, 10 days
Description: as §1, §2

[7] = tested on: pigweed, palmer (palmer amaranth, Amaranthus palmeri); assay: Test A postemergence, palmer amaranth; format: in vivo; conditions: 0 to 100 scale, 10 days
Description: as §1, §2

[8] = tested on: wheat (Triticum aestivum); assay: Test A preemergence, wheat; format: in vivo; conditions: 0 to 100 scale, 10 days
Description: as §1, §2

[9] = tested on: corn (Zea mays); assay: Test A preemergence, corn; format: in vivo; conditions: 0 to 100 scale, 10 days
Description: as §1, §2

[10] = tested on: goosegrass (Eleusine indica); assay: Test A postemergence, goosegrass; format: in vivo; conditions: 0 to 100 scale, 10 days
Description: as §1, §2

SMILES	melting point [°C]	pest or weed control at 31 g/ha [1] [%]	pest or weed control at 125 g/ha [1] [%]	pest or weed control at 31 g/ha [2] [%]	pest or weed control at 125 g/ha [2] [%]	pest or weed control at 31 g/ha [3] [%]	pest or weed control at 125 g/ha [3] [%]	pest or weed control at 31 g/ha [4] [%]	pest or weed control at 125 g/ha [4] [%]	pest or weed control at 250 g/ha [5] [%]	Plant response rating, Pigweed, Palmer ([6]; 31 g ai/ha)	Plant response rating, Pigweed, Palmer ([6]; 125 g ai/ha)	Plant response rating, Pigweed, Palmer ([7]; 31 g ai/ha)	Plant response rating, Pigweed, Palmer ([7]; 125 g ai/ha)	Plant response rating, Wheat ([8]; 31 g ai/ha)	Plant response rating, Wheat ([8]; 125 g ai/ha)	Plant response rating, Corn ([9]; 31 g ai/ha)	Plant response rating, Corn ([9]; 125 g ai/ha)	Plant response rating, Goosegrass ([10]; 31 g ai/ha)	Plant response rating, Goosegrass ([10]; 125 g ai/ha)
C#CCOC1CCN(c2cc(NS(=O)(=O)C(F)(F)F)c(C)cc2C)C1=O (centres unmarked) [Compound 1, N-[2,4-dimethyl-5-[2-oxo-3-(2-propyn-1-yloxy)-1-pyrrolidinyl]phenyl]-1,1,1-trifluoromethanesulfonamide]	164 to 167	30	80	70	100	60	80	30	90	60	–	–	–	–	–	–	–	–	–	–
C=CCOC1CCN(c2cc(NS(=O)(=O)C(F)(F)F)c(C)cc2C)C1=O (centres unmarked) [Compound 2, N-[2,4-dimethyl-5-[2-oxo-3-(2-propen-1-yloxy)-1-pyrrolidinyl]phenyl]-1,1,1-trifluoromethanesulfonamide]	134 to 137	20	60	50	90	50	70	20	80	40	–	–	–	–	–	–	–	–	–	–
Cc1cc(C)c(N2CCC(OC3CC3)C2=O)cc1NS(=O)(=O)C(F)(F)F (centres unmarked) [Compound 3, N-[5-[3-(cyclopropyloxy)-2-oxo-1-pyrrolidinyl]-2,4-dimethylphenyl]-1,1,1-trifluoromethanesulfonamide]	171 to 174	50	100	100	100	80	90	90	100	90	100	100	40	60	100	100	90	90	80	90
Cc1cc(C)c(N2CCC(OC3CCC3)C2=O)cc1NS(=O)(=O)C(F)(F)F (centres unmarked) [Compound 4, N-[5-[3-(cyclobutyloxy)-2-oxo-1-pyrrolidinyl]-2,4-dimethylphenyl]-1,1,1-trifluoromethanesulfonamide]	166 to 169	60	90	70	100	70	90	90	100	45	100	100	60	90	70	100	40	90	70	90
Cc1cc(C)c(N(COC(=O)C(C)(C)C)S(=O)(=O)C(F)(F)F)cc1N1CCC(OC2CCCC2)C1=O (centres unmarked) [Compound 5, [[5-[3-(cyclopentyloxy)-2-oxo-1-pyrrolidinyl]-2,4-dimethylphenyl][(trifluoromethyl)sulfonyl]amino]methyl 2,2-dimethylpropanoate]	–	20	70	0	60	60	80	0	40	95	10	50	20	70	0	20	0	20	50	90
Cc1cc(C)c(N2CCC(OC3CCCC3)C2=O)cc1NS(=O)(=O)C(F)(F)F (centres unmarked) [Compound 6, N-[5-[3-(cyclopentyloxy)-2-oxo-1-pyrrolidinyl]-2,4-dimethylphenyl]-1,1,1-trifluoromethanesulfonamide]	–	20	80	30	90	60	90	30	90	30	70	100	50	60	80	100	30	80	80	90
Cc1cc(C)c(N(COC(=O)C(C)(C)C)S(=O)(=O)C(F)(F)F)cc1N1CCC(OC2CC2)C1=O (centres unmarked) [Compound 7, [[5-[3-(cyclopropyloxy)-2-oxo-1-pyrrolidinyl]-2,4-dimethylphenyl][(trifluoromethyl)sulfonyl]amino]methyl 2,2-dimethylpropanoate]	–	70	80	60	100	90	90	30	90	98	50	100	30	60	0	80	0	50	90	90
Cc1cc(C)c(N(COC(=O)C(C)(C)C)S(=O)(=O)C(F)(F)F)cc1N1CCC(OC2CCC2)C1=O (centres unmarked) [Compound 8, [[5-[3-(cyclobutyloxy)-2-oxo-1-pyrrolidinyl]-2,4-dimethylphenyl][(trifluoromethyl)sulfonyl]amino]methyl 2,2-dimethylpropanoate]	–	60	80	0	100	70	90	20	90	98	30	90	60	90	0	50	0	10	80	90
Cc1cc(C)c(N2CC/C(=N\O)C2=O)cc1NS(=O)(=O)C(F)(F)F [Compound 10, 1,1,1-trifluoro-N-[5-[3-(hydroxyimino)-2-oxo-1-pyrrolidinyl]-2,4-dimethylphenyl]methanesulfonamide]	213 to 216	–	–	–	–	–	–	–	–	–	–	–	–	–	–	–	–	–	–	–
C=CCO/N=C1\CCN(c2cc(NS(=O)(=O)C(F)(F)F)c(C)cc2C)C1=O [Compound 11]	184 to 187	–	–	–	–	–	–	–	–	–	–	–	–	–	–	–	–	–	–	–
CCO/N=C1\CCN(c2cc(NS(=O)(=O)C(F)(F)F)c(C)cc2C)C1=O [Compound 12, N-[5-[3-(ethoxyimino)-2-oxo-1-pyrrolidinyl]-2,4-dimethylphenyl]-1,1,1-trifluoromethanesulfonamide]	201 to 204	–	–	–	–	–	–	–	–	–	–	–	–	–	–	–	–	–	–	–
C#CCO/N=C1\CCN(c2cc(NS(=O)(=O)C(F)(F)F)c(C)cc2C)C1=O [Compound 13, N-[2,4-dimethyl-5-[2-oxo-3-[(2-propyn-1-yloxy)imino]-1-pyrrolidinyl]phenyl]-1,1,1-trifluoromethanesulfonamide]	175 to 178	–	–	–	–	–	–	–	–	–	–	–	–	–	–	–	–	–	–	–
